Measured values: patent publication US5578639A, “PLA2 inhibitors and their use for inhibition of intestinal cholesterol absorption” (Warner-Lambert Company, priority 1995, dated 1996)
Values belong to the compound of their own block, whether it stands above or below them.

Assays:
plasma lipids = assay: Plasma lipids in cholesterol-fed rats after oral PLA2 inhibitor; assay type: in vivo; conditions: 100 mg/kg oral gavage, about 8 hours after start of feeding
Protocol: Ultimately, agents that inhibit the absorption of dietary cholesterol should suppress postprandial increases in plasma cholesterol. This was tested with several. PLA2 inhibitors in cholesterol-fed rats. The general protocol consisted of preparing a carboxymethyl cellulose/Tween 20 dispersion of the compound of interest and administering it at a dose of 100 mg/kg by oral gavage to rats previously trained to meal-feed. Immediately following administration of the inhibitor, the rats were fed a lipid-rich meal of chow supplemented with cholesterol, peanut oil, and cholic acid.

porcine pancreatic PLA2 = target: T1, porcine pancreatic PLA2 (Sus scrofa, UniProt P00592); assay: Fluorescence assay of porcine pancreatic PLA2 inhibition in vitro; assay type: biochemical; conditions: porcine pancreatic PLA2, in vitro; read-out: In Vitro IC50 (porc. panc. PLA2)
T1 construct: purchased Sigma Chemical Company (St. Louis, Mo.); host or cells: porcine pancreas
Excerpt: The IC50 values for inhibition of porcine pancreatic PLA2, in vitro, are included for comparison with the in vivo activities.
A sensitive fluorescence method was used to measure the activity of pancreatic phospholipase A2 (PLA2) in vitro. PLA2 hydrolyzes the ester bond linking fatty acids to the sn-2 position in glycerophospholipids. Several types of PLA2 exist, including those isolated from venoms, synovial fluid, platelets, immunoactive cell types and the pancreas. The pancreatic PLA2 was the subject of this experiment because of its fundamental role in promoting lipid absorption in the intestine.
PLA2 activity was detected by the loss of pyrene excimer fluorescence that occurs when (1-pyrenyl)decanoic acid is hydrolysed from the sn-2 position of 1,2-bis-(1-pyrenedecanoyl)sn-glycero-3-phosphocholine ((P10)2 PC) by the action of PLA2. The use of similar pyrene-labeled PC substrates to detect PLA2 activity has been described previously (Radvanyi F., Jordan L., Russo-Marie F., Bon C., "A sensitive and continuous fluorometric assay for phospholipase A2 using pyrene-labeled phospholipids in the presence of serum albumin." Anal. Biochem., 177:103-109 (1989)). The full photophysical basis for the assay is described elsewhere (Birks J. B., "Photophysics of Aromatic Molecules," Wiley Interscience, New York, pp 301-371 (1970)).
In brief, pyrene excimers are formed by the complexation of one pyrene moiety in the ground-state with one pyrene moiety in the excited state to form an excited-state dimer (excimer) which fluoresces at longer wavelengths (475 nm emission maximum) than the wavelength range in which excited-state pyrene monomers fluoresce (370-400 nm). Excimer formation is dependent on the concentration of pyrene moieties. (P10)2 PC emits excimer fluorescence almost exclusively due to the fixed juxtaposition of the pyrene chromophores. The substrate concentration is sufficiently dilute so that excimer formation between the products of PLA2 action, namely lysoPY10PC and the (1-pyrenyl)decanoic acid, is insignificant.
In general, this assay scheme should have been applicable to the study of any type of PLA2. However, since pancreatic PLA2 is unique from the other PLA2 's in that it operates almost exclusively against micellized PC, the PC substrate in this assay was micellized with 1 mM deoxycholic acid. The PC component of the micelles consisted of 5 μM (P10)2 PC substrate diluted with a 99-fold excess (495 μM) of 1-oleyl-2-palmityl phosphatidylcholine (OPPC). The OPPC was inert to PLA2 hydrolysis because it contained ether-linked fatty alkyl chains in place of the ester-linked fatty acyl chains of normal PC. OPPC was included to 1) dilute the micellar (P10)2 PC concentration thereby minimizing intermolecular excimer formation, and 2) preserve the integrity of the micelles against the action of PLA2 since nonspecific micelle disruption could lead to nonlinear kinetics and fluorescence changes independent of lipolysis.
Phospholipase A2 (porcine pancreas), bovine serum albumin (BSA) (fraction V, essentially fatty acid-free) and sodium deoxycholate were obtained from Sigma Chemical Company, (St. Louis, Mo.). 1-Oleyl-2-palmityl-DL-phosphatidylcholine (OPPC) was ordered from Serdary Research Laboratories, Inc. (London, Ont., Canada). 1,2-Bis-(1-pyrenedecanoyl)-sn-glycero-3-phosphatidylcholine ((P10)2 PC) was obtained from Molecular Probes, Inc. (Eugene, Oreg.).
HEPES buffer (SHE) contained 150 mM NaCl, 20 mM HEPES (N-[2-hydroxyethyl]piperazine-N'-[2-ethanesulfonic acid]) and 1 mM EDTA (ethylenediamine tetraacetic acid) at pH 8.0.
1 mM (P10)2 PC in chloroform was prepared by adding 1 mL chloroform to a vial containing 1 mg of (P10)2 PC, as shipped by Molecular Probes. The actual concentration was determined spectrophotometrically by diluting 10 μL of the chloroform solution in 2 mL of ethanol. The absorbance spectrum of the ethanol solution was measured between 380 nm to 280 nm (Beckman DU-64). […]

[1] = test system: intestinal lipid absorption; assay: Lymph-fistula rats, effect of PLA2 inhibitors on lymphatic lipid output; assay type: in vivo, rat; conditions: FIGS. 10 and 11
Excerpt: The intestinal lipid absorption pathway was isolated in the rat by inserting an infusion cannula in the proximal duodenum and implanting a second cannula in the mesenteric lymph vessel to intercept the lipoprotein output from the intestine. This lymph-fistula rat model was used to investigate the effect of pancreatic PLA2 inhibition, in situ, on intestinal absorption of infused lipid emulsions. In a typical experiment, cannulae were implanted the day before the experimental infusion. Following surgery, the animals were infused (2.5 mL/hr) with isotonic saline containing dextrose to flush the GI tract and obtain basal levels of lymphatic lipid output. On the day of the experiment, infusion of the dextrose recovery solution was continued for 1 hour to collect a basal lymph fraction. At the start of the next hour, the intake of the duodenal infusion cannula was switched to a lipid emulsion of isotonic saline containing safflower oil (59 mM), cholesterol (5.2 mM), PC (3.3 mM) and taurocholic acid (1.9 mM). One hour lymph fractions were collected until the end of the experiment. The lipid content (mass) of lymph fractions was determined by HPLC with a mass-sensitive, evaporative light-scattering detector. […]

cholesterol absorption = assay: Cholesterol-fed hamster model, plasma and liver cholesterol / cholesterol absorption; assay type: in vivo; conditions: FIG. 13
Excerpt: Neomycin and β-sitosterol (Cytellin) have been used as cholesterol absorption inhibitors to treat hypercholesterolemic patients (Kesaniemi, et al., Serum cholesterol lowering by inhibition of cholesterol absorption, Atherosclerosis, VIII:791-794 (1989)). The mechanisms by which these agents inhibit intestinal cholesterol absorption are unknown. Relatively large doses must be administered (1.5-2 g/day neomycin, 3-50 g/day β-sitosterol) to achieve up to 25% reductions in serum cholesterol levels. The advantages of PLA2 inhibitors over these agents is that the mechanism of cholesterol absorption inhibition is known and sufficiently potent PLA2 inhibitors could be administered in much smaller doses (potentially fewer side effects and better patient compliance) to achieve greater reductions in serum cholesterol levels. For example, in a cholesterol-fed hamster model, administration of 100 mg/kg of the phospholipase A2 inhibitor methyl-[2-(hexadecyloxy)phenyl]methyl ester phosphonic acid (Compound D in FIG. 13) produced reductions in plasma and liver cholesterol levels nearly equivalent to those obtained with a ten-fold higher dose (i.e., 1000 mg/kg) of β-sitosterol. Pancreatic PLA2 inhibitors represent a significant advancement over current agents, the use of which has already proven cholesterol absorption inhibitors to be a beneficial and effective therapy for hypercholesterolemia.

serum cholesterol = conditions: neomycin 1.5-2 g/day; β-sitosterol 3-50 g/day; cited from earlier work
Caco-2 cells [2] = assay: Caco-2 phospholipase A2-dependent cholesterol absorption, time course; assay type: cell-based, human; conditions: for suppression of cholesterol absorption by PC, effect of PLA2: porcine pancreatic PLA2, PC-containing micelles
Caco-2 cells [3] = assay: Caco-2 retinol absorption; assay type: cell-based, human; conditions: 10 μM retinol; FIG. 6
Protocol: (§1) Caco-2 cells were used as a tissue culture model of the human intestinal epithelium to compare the effects of phosphatidylcholine and lysophosphatidylcholine on lipid absorption and the subsequent re-esterification and secretion of micelle-derived lipids.
The micelle preparations used in the experiments described for FIG. 4 also contained 10 μM retinol. Retinol was included to determine whether the influence of micellar phospholipid composition on cholesterol absorption extended to other fatty alcohols. Like cholesterol, retinol is a fatty alcohol that is absorbed from the diet by the intestinal epithelium and passed into the circulation by an analogous transport process involving fatty acylation and assembly of the resultant retinyl esters into chylomicrons (Blomhoff R., Green M. H., Berg T., Norum K. R., "Transport and storage of vitamin A." Science, 250:399-404 (1990)).

Caco-2 cells [4] = assay: Caco-2 lipase studies; assay type: cell-based, human
Protocol: as §1
This was tested with the Caco-2 cells. Taurocholic acid micelles containing phosphatidylcholine, triolein, cholesteryl oleate and cholesterol were placed in the medium covering the apical surface of Caco-2 cell monolayers. Depending on the neutral lipid lipase being studied, either the triolein or cholesteryl oleate was tritium-labeled. The time course of radiolabeled lipid uptake and metabolism was studied in the absence or presence of the neutral lipid lipases, with or without PLA2. The results are in agreement with those presented by Borgstrom and coworkers. […] The results for micellar tri[^3 H]olein uptake indicated a similar but less severe dependence of triglyceride lipase activity on PLA2.

T1 sequence (P00592 23-146): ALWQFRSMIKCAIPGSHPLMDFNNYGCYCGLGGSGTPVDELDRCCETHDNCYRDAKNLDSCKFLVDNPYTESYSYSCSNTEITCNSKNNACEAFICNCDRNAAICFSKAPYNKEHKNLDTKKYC

- IC50 (porcine pancreatic PLA2): 4 µM
Compound: CCCCCCCCCCCn1nnn(Cc2ccccc2)c1=N [Compound B, 1,4-dihydro-1-(phenylmethyl)-4-undecyl-5H-tetrazol-5-imine]
- % Change in plasma lipids vs. Control: HDL Chol. (plasma lipids): 9%
- % Change in plasma lipids vs. Control: Total Chol. (plasma lipids): -32%
- % Change in plasma lipids vs. Control: non-HDL Chol. (plasma lipids): -44%
- lipid absorption in rats [1]: reduced

Compound: CC[C@H](CC[C@@H](C)[C@H]1CC[C@H]2[C@@H]3CC=C4C[C@@H](O)CC[C@]4(C)[C@H]3CC[C@]12C)C(C)C [β-sitosterol]
- cholesterol absorption in hamsters (cholesterol absorption): reduced
- reductions in serum cholesterol levels (serum cholesterol): up to 25%

Compound: PLA2: porcine pancreatic phospholipase A2
- [3H]oleate-labeled PC synthesis relative to phospholipid-free micelles (Caco-2 cells [2]; 6 hours, micelles with lyso-PC, or PC with PLA2): slight decrease
- cell [14C]cholesteryl ester relative to incubations without micellar phospholipid (Caco-2 cells [2]; 12 hours, PC in the presence of PLA2): 60%
- cell-associated free [14C]cholesterol relative to level in the absence of PC (Caco-2 cells [2]; PLA2 added to PC-containing micelles): 76%
- suppression of cholesterol absorption by PC, effect of PLA2 (Caco-2 cells [2]): partially reversed the inhibitory effects of micellar PC
- suppression of cholesterol absorption by PC, effect of PLA2 (Caco-2 cells [2]; listed as pancreatic phospholipase A2): reverses the suppression of cholesterol absorption and metabolism
- retinol uptake and esterification (Caco-2 cells [3]): not affected
- cellular absorption of fatty acids (Caco-2 cells [4]; FIGS. 7 and 8): dramatic increase
- cellular accumulation of tritiated lipid from tri[3H]olein (Caco-2 cells [4]; triglyceride lipase with or without PLA2, FIG. 8): the greatest cellular accumulation of tritiated lipid occurred in the incubation containing both lipases together
- entry of micellar [3H]cholesteryl oleate label into cells (Caco-2 cells [4]; with or without carboxyl ester lipase and PLA2, FIG. 7): did not enter the cells unless both carboxyl ester lipase and PLA2 were included in the incubation
